From patent US20220387393A1, “METHODS FOR THE TREATMENT OF DYSMYELINATING/DEMYELINATING DISEASES” (Board of Regents, The University of Texas System, priority 2019, published 2022)

Legend:
[1] = test system: corpus callosum (CC) myelin of mouse brains; type: in vivo; conditions: for delayed-onset demyelination and myelin lipid reduction in the CC: 6 months, but not 4 months, after chemotherapy cessation
Excerpt: (§1) FIGS. 4A-4C. […] (FIG. 4A) Quantitative FluoroMyelin staining of the corpus callosum (CC) in 4-month and 6-month mouse brains treated with 5-FU, saline and/or KD3010. (FIG. 4B) Quantitative immunofluorescent staining of oligodendrocyte lineage marker Olig2 in the CC of 6-month mouse brains treated with 5-FU or saline.

[2] = test system: corpus callosum (CC) myelin of mouse brains; conditions: 6 months after a clinically relevant dose for 1 week; cited from earlier work
Qk-iCKO mice = test: Qki depletion-induced demyelination in Qk-iCKO mice, daily oral administration; type: in vivo; conditions: for Qk-iCKO mice that lived for more than 100 days: 3 of 13 treated Qk-iCKO mice; for maximum survival duration increased / clinical scores / onset of neurological deficits / prolonged median survival times / body weights: Qk-iCKO mice; for maximum survival duration increased: compared to controls; for clinical scores / onset of neurological deficits / prolonged median survival times / body weights: oral administration, compared to vehicle; for body weights: 4 weeks after tamoxifen injection; for higher myelin lipid levels (FluoroMyelin) than vehicle-treated Qk-iCKO mice: corpus callosum; for higher myelin lipid levels (FluoroMyelin) than vehicle-treated Qk-iCKO mice / myelin sheaths (g-ratio) / more myelinated axons than vehicle-treated Qk-iCKO mice: after 5 weeks of treatment; for myelin sheaths (g-ratio) / more myelinated axons than vehicle-treated Qk-iCKO mice: optic nerves; for myelin sheaths (g-ratio): versus vehicle; for more myelinated axons than vehicle-treated Qk-iCKO mice: electron micrographs
Excerpt: FIGS. 2A-2J. […] In FIG. 2A, the four groups within each week represent, from left to right, Ctrl (Veh), iCKO (Veh), Ctrl (KD3010), and iCKO (KD3010). In FIG. 2D, the four groups within each week represent, from left to right, Ctrl (Veh), iCKO (Veh), Ctrl (Bex), and iCKO (Bex). In FIGS. 2B and 2E, the two lines that reach the X-axis represent the iCKO populations. (FIGS. 2C and 2F) Body weights of Qk-iCKO mice and controls receiving daily oral administration of KD3010, Bex, or Veh for 4 weeks after tamoxifen injection. (FIGS. 2G and 2H) Representative electron micrographs and quantification of the percentage of myelinated axons and g-ratio of the optic nerves of the experimental mice after 5 weeks of treatment. Scale bars, 500 nm. (FIGS. 2I and 2J) Representative images and quantification of FluoroMyelin level in the corpus callosum tissues of experimental mice after 5 weeks of treatment. Scale bars, 50 μm. Data are mean±s.d.; one-way ANOVA with Fisher's LSD correction. *P<0.05; **P<0.01; ***P<0.001; ****P<0.0001. ns, not significant.
Therefore, whether PPARβ-RXRα agonists could alleviate lipid defect-induced demyelination and its related symptoms was tested.

[3] = test system: demyelination induced by 5-FU; test: 5-FU (chemotherapy)-induced demyelination in mice, treatment with agonist; type: in vivo; conditions: FluoroMyelin staining of corpus callosum, mouse brains treated with 5-FU
Excerpt: as §1

[4] = Dickey et al., 2016; cited from earlier work

SMILES	delayed-onset demyelination and myelin lipid reduction in the CC [1]	Qk-iCKO mice that lived for more than 100 days (Qk-iCKO mice)	maximum survival duration increased (Qk-iCKO mice)	clinical scores (Qk-iCKO mice)	onset of neurological deficits (Qk-iCKO mice)	prolonged median survival times (Qk-iCKO mice)	body weights (Qk-iCKO mice)	higher myelin lipid levels (FluoroMyelin) than vehicle-treated Qk-iCKO mice (Qk-iCKO mice)	myelin sheaths (g-ratio) (Qk-iCKO mice)	more myelinated axons than vehicle-treated Qk-iCKO mice (Qk-iCKO mice)	also measured
O=c1[nH]cc(F)c(=O)[nH]1 [5-FU, 5-fluorouracil]	exhibited delayed-onset demyelination and myelin lipid reduction										changes in myelin protein levels and oligodendrocyte numbers ([1]; CC of 6-month mouse brains): minimal changes; Qki in the oligodendrocytes in the lesions ([1]; Olig2/Qki double staining, CC of 6-month mouse brains): greatly reduced; delayed-onset demyelination (Han et al., 2008) [2]: developed delayed-onset demyelination
C[C@@H]1CN(c2ccc(OC(F)(F)F)cc2)C[C@H](C)N1S(=O)(=O)c1cccc2c1C[C@@H](C(=O)O)C2 [KD3010, (S)-4-[cis-2,6-dimethyl-4-(4-trifluoromethoxy-phenyl)piperazine-1-sulfonyl]-indan-2-carboxylic acid]		23.1%	3.72 fold	lowered	significantly delayed	2.34 fold	increased	119.4%	thicker	115.3%	demyelination induced by 5-FU [3]: greatly alleviated; CNS permeability [4]: CNS-permeable
C=C(c1ccc(C(=O)O)cc1)c1cc2c(cc1C)C(C)(C)CCC2(C)C [bexarotene]		23.1%	4.03 fold	lowered	significantly delayed	1.41 fold	increased	89.5%	thicker	73.7%	
COc1cccc2c1C(=O)c1c(O)c3c(c(O)c1C2=O)C[C@@](O)(C(=O)CO)C[C@@H]3O[C@H]1C[C@H](N)[C@H](O)[C@H](C)O1 [doxorubicin]	exhibited delayed-onset demyelination and myelin lipid reduction										
CN(Cc1cnc2nc(N)nc(N)c2n1)c1ccc(C(=O)N[C@@H](CCC(=O)O)C(=O)O)cc1 [methotrexate]	exhibited delayed-onset demyelination and myelin lipid reduction										
